pEC50: −log10 of the molar value.
What was measured:
[1] = tested on: Human betaherpesvirus 5; test: Antiviral activity against recombinant HCMV AD169 expressing GFP infected in human foreskin fibroblasts measured after 7 days by GFP-based multi-round replication assay; assay type: functional, organism-based; conditions: Human betaherpesvirus 5, strain AD169, 168 h
[2] = tested on: Plasmodium falciparum; test: Antimalarial activity against ring stage Plasmodium falciparum 3D7 infected in type A-positive human erythrocytes after 72 hrs by SYBR green 1 dye-based fluorescence assay; assay type: functional, organism-based; conditions: 3D7, 72 h
[3] = tested on: Plasmodium falciparum; test: Potency index, ratio of betulin EC50 to compound EC50 for antimalarial activity against ring stage Plasmodium falciparum 3D7 infected in type A-positive human erythrocytes; assay type: functional
[4] = tested on: Human betaherpesvirus 5; test: Potency index, ratio of artesunic acid EC50 to compound EC50 for antiviral activity against recombinant HCMV AD169 expressing GFP infected in human foreskin fibroblasts; assay type: functional, strain AD169
[5] = tested on: Human betaherpesvirus 5; test: Potency index, ratio of betulinic acid EC50 to compound EC50 for antiviral activity against recombinant HCMV AD169 expressing GFP infected in human foreskin fibroblasts; assay type: functional, strain AD169
[6] = tested on: Plasmodium falciparum; test: Potency index, ratio of betulinic acid EC50 to compound EC50 for antimalarial activity against ring stage Plasmodium falciparum 3D7 infected in type A-positive human erythrocytes; assay type: functional

Compound | pEC50 [1] | pEC50 [2] | Ratio EC50 [3] | Ratio EC50 [4] | Ratio EC50 [5] | Ratio EC50 [6]
C=C(C)[C@@H]1CC[C@]2(COC(=O)CCC(=O)O[C@@H]3O[C@@H]4O[C@@]5(C)CC[C@H]6[C@H](C)CC[C@@H]([C@H]3C)[C@@]46OO5)CC[C@]3(C)[C@H](CC[C@@H]4[C@@]5(C)CC[C@H](O)C(C)(C)[C@@H]5CC[C@]43C)[C@@H]12 | 6.06 | 6.59 | 20 | – | – | –
C=C(C)[C@@H]1CC[C@]2(C(=O)O)CC[C@]3(C)[C@H](CC[C@@H]4[C@@]5(C)CC[C@H](OC(=O)CCC(=O)O[C@@H]6O[C@@H]7O[C@@]8(C)CC[C@H]9[C@H](C)CC[C@@H]([C@H]6C)[C@@]79OO8)C(C)(C)[C@@H]5CC[C@]43C)[C@@H]12 | 6.62 | 7.07 | – | 23 | 15 | 16
C[C@H]1[C@@H](O)O[C@@H]2O[C@@]3(C)CC[C@H]4[C@H](C)CC[C@@H]1[C@@]24OO3 [ARTENIMOL] | < 5.00 | 8.59 | – | – | – | –
C=C(C)[C@@H]1CC[C@]2(C(=O)O)CC[C@]3(C)[C@H](CC[C@@H]4[C@@]5(C)CC[C@H](O)C(C)(C)[C@@H]5CC[C@]43C)[C@@H]12 [BETULINIC ACID] | 5.44 | 5.85 | – | – | – | –
C=C(C)[C@@H]1CC[C@]2(CO)CC[C@]3(C)[C@H](CC[C@@H]4[C@@]5(C)CC[C@H](O)C(C)(C)[C@@H]5CC[C@]43C)[C@@H]12 [BETULIN] | 5.70 | 5.40 | – | – | – | –
CCN(CC)CCCC(C)Nc1ccnc2cc(Cl)ccc12 (stereo not given) [CHLOROQUINE PHOSPHATE] | – | 8.08 | – | – | – | –

— ChEMBL document CHEMBL4371023, “Synthesis of new betulinic acid/betulin-derived dimers and hybrids with potent antimalarial and antiviral activities” (Bioorg Med Chem, 2019)
